Blank lines part the entries; values can stand above or below the molecule they belong to.
Key:
c-Src kinase domain [1] = molecular target: T1, c-Src kinase domain (Homo sapiens, UniProt P12931); test: pTyr-Var library bacterial peptide display kinase screen (enrichment scores); assay type: biochemical;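 as to c-Src hit?: Hit requires p below 0.05 and at least twofold variant vs reference change plus filters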;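 as to screen: log2 fold change in enrichment of variant over reference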
c-Src kinase domain [2] = molecular target: T1, c-Src kinase domain; test: RP-HPLC assay to measure peptide phosphorylation kinetics; assay type: biochemical; details: purified peptide substrate
Protocol: To validate the enrichment scores observed in the c-Src screening data, the phosphorylation rates were measured in vitro with the purified catalytic domain of c-Src and synthetic 11-residue peptides derived from sequences in the pTyr-Var library. […] Reactions were initiated by adding 1 mM ATP. At various time points, 100 μL aliquots were removed and quenched by the addition of EDTA to a final concentration of 25 mM. Each time point sample was analyzed by analytical RP-HPLC, monitoring absorbance at 214 nm. Forty μL of each time point was injected onto a C18 column (ZORBAX 300 SB-C18, 5 μm, 4.6x150 mm). The solvent system used was water with 0.1% trifluoroacetic acid (solvent A) and acetonitrile with 0.1% trifluoroacetic acid (solvent B). […] The fractional product peak area was plotted as a function of reaction time, and the initial linear regime of this plot was fitted to a straight line to determine a reaction rate. Rates were corrected for substrate and enzyme concentration. Reactions were done in triplicate or quadruplicate.

MERTK kinase domain = test: pTyr-Var library bacterial peptide display kinase screen (enrichment scores); assay type: biochemical, human
c-Src SH2 domain = c-Src SH2 domain (Homo sapiens, UniProt P12931); test: pTyr-Var library SH2 domain screen with SH2-dynabeads (enrichment scores); details: sheet c-Src
Fes = test: pTyr-Var library bacterial peptide display kinase screen (enrichment scores); assay type: biochemical
Jak2 = test: as above; assay type: biochemical, human
Grb2 SH2 domain = test: pTyr-Var library SH2 domain screen with SH2-dynabeads (enrichment scores)
c-Abl kinase domain = molecular target: T2, c-Abl kinase domain (Mus musculus, UniProt P00520); test: pTyr-Var library bacterial peptide display kinase screen (enrichment scores); assay type: biochemical;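 as to c-Abl hit?: Hit requires p below 0.05 and at least twofold variant vs reference change plus filters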
T2 sequence (P00520 242-493 limits assumed): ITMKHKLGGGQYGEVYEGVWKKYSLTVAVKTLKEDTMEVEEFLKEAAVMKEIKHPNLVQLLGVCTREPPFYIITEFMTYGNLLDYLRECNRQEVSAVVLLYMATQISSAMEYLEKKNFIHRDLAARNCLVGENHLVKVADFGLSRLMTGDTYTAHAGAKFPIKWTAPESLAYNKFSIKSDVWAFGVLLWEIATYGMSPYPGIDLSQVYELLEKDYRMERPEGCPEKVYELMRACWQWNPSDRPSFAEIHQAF

FGFR1 kinase domain [3] = test: as above; assay type: biochemical, human
FGFR3 kinase domain = test: as above; assay type: biochemical, human
EPHB1 kinase domain = test: as above; assay type: biochemical, human
Fer kinase domain = test: as above; assay type: biochemical, mouse;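 as to Fer hit?: Hit requires p below 0.05 and at least twofold variant vs reference change plus filters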
EPHB2 kinase domain = test: as above; assay type: biochemical, human
SHP2 C-SH2 domain = test: pTyr-Var library SH2 domain screen with SH2-dynabeads (enrichment scores)
Fyn kinase domain [4] = test: pTyr-Var library bacterial peptide display kinase screen (enrichment scores); assay type: biochemical, human;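 as to Fyn hit?: Hit requires p below 0.05 and at least twofold variant vs reference change plus filters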
AncSZ kinase domain = test: as above; assay type: biochemical
Hck kinase domain = test: as above; assay type: biochemical, human
FGFR1 kinase domain [5] = test: LC-MS assay of intact SHP2 protein phosphorylation; assay type: biochemical, human; details: SHP2 10 μM, kinase 1 μM, 1 hr, 37 °C, 2 to 3 measurements
Protocol: (§1) The same protocol used to express and purify SH2 domains, excluding co-expression of BirA and addition of biotin, was applied to the expression and purification of the SHP2 variants.
(§2) To pre-activate the kinases, 1 μM of each purified kinase domain was preincubated at 37 °C for 30 min in the same buffer conditions used in the kinase domain peptide display screen, with 1 mM ATP. The reaction of the kinase with SHP2 was initiated with the addition of 10 μM SHP2, and the mixture was incubated in 37 °C for 1 hr. To terminate the reaction, the mixture was quenched with 200 mM EDTA. The reaction mixture was diluted 3:2 in water and injected onto a BEH C8 column (Waters) on a UPLC-MS system (Xevo QToF, Waters). Reverse-phase liquid chromatography was carried out at 0.3 mL/min with solvents A (H2O, 0.1% (v/v) formic acid) and B (acetonitrile, 0.1% (v/v) formic acid). Proteins were eluted over a gradient of 5–95% B for 8.5 min. The protein peak on the chromatogram was deconvoluted using the MaxEnt1 algorithm from 32,000–65,000 Da with a resolution of 1 Da/channel over 30 iterations. Peaks were chosen according to the theoretical MW of the protein within a range of 5 Da, and integrated for the signal intensity.

Fyn kinase domain [6] = test: LC-MS assay of intact SHP2 protein phosphorylation; assay type: biochemical, human; details: SHP2 10 μM, kinase 1 μM, 1 hr, 37 °C, 2 to 3 measurements
Protocol: as §1, §2

[7] = mean of log2(variant) minus mean of log2(reference)
[8] = mean of log2 enrichment of variant peptide, n = 4
[9] = variant versus reference peptide
[10] = pTyr-Var library, enrichment score, replicate 3
[11] = variant versus reference peptide, significant hit TRUE/FALSE
[12] = mean of log2 of enrichment over R1-R4
[13] = pTyr-Var library, enrichment score, replicate 1
[14] = pTyr-Var library, enrichment score, replicate 4
[15] = mean of log2 enrichment of variant peptide, n = 5

Molecule: Ac-WDLPEYSFKDP-NH2 [ITGA3_Y237_S235P_YF, pTyr-Var library variant phosphosite peptide]
Screen (c-Src kinase domain [1]; sheet "Src", effect of the variant peptide relative to its reference peptide in the pTyr-Var library screen): -1.08
Phosphorylation Rate (c-Src kinase domain [2]): 0.153 s⁻¹

Molecule: GMAHNYRNRSQ [AASS_Y188_S191R]
difference (MERTK kinase domain; [7]): 0.1021
mean of log2(variant) (MERTK kinase domain; [8]): -1.214
difference (c-Src SH2 domain; [7]): -0.07136
mean of log2(variant) (c-Src SH2 domain; mean of log2 enrichment of variant peptide, R1-R3): -1.19
Fes mean of log2(enrichment) (Fes; mean of log2 of enrichment over R1-R6): -0.768
Fes difference (mean log2 variant - mean log2 reference) (Fes; [9]): 0.4232
Jak2 mean of log2(enrichment) (Jak2; mean of log2 of enrichment over R1-R3): -1.127
Jak2 enrich. R3 (Jak2; [10]): 0.7448
Jak2 difference (mean log2 variant - mean log2 reference) (Jak2; [9]): 0.1075
Jak2 hit? (Jak2; [11]): FALSE
difference (Grb2 SH2 domain; Grb2 SH2, mean of log2(variant) minus mean of log2(reference)): -0.06902
mean of log2(variant) (Grb2 SH2 domain; Grb2 SH2, mean of log2 enrichment of variant, R1-R3): -0.6418
hit? (Grb2 SH2 domain; Grb2 SH2, variant versus reference significant hit call): FALSE
c-Abl mean of log2(enrichment) (c-Abl kinase domain; [12]): -0.8983
c-Abl enrich. R1 (c-Abl kinase domain; [13]): 0.3489
c-Abl enrich. R3 (c-Abl kinase domain; [10]): 0.6113
c-Abl enrich. R4 (c-Abl kinase domain; [14]): 0.4438
c-Abl hit? (c-Abl kinase domain; [11]): FALSE
difference (FGFR1 kinase domain [3]; [7]): -0.1712
mean of log2(variant) (FGFR1 kinase domain [3]; [15]): -1.608
var. mean (FGFR1 kinase domain [3]; pTyr-Var library, variant peptide enrichment, mean of n = 5): 0.3444
difference (FGFR3 kinase domain; [7]): -0.0947
mean of log2(variant) (FGFR3 kinase domain; [15]): -1.326
difference (EPHB1 kinase domain; [7]): 0.7368
mean of log2(variant) (EPHB1 kinase domain; [8]): -1.347
Fer mean of log2(enrichment) (Fer kinase domain; [12]): -1.585
Fer enrich. R1 (Fer kinase domain; [13]): 0.273
Fer enrich. R3 (Fer kinase domain; [10]): 0.5188
Fer enrich. R4 (Fer kinase domain; [14]): 0.4406
Fer difference (mean log2 variant - mean log2 reference) (Fer kinase domain; [9]): -0.1949
Fer hit? (Fer kinase domain; [11]): FALSE
difference (EPHB2 kinase domain; [7]): -0.2462
mean of log2(variant) (EPHB2 kinase domain; [8]): -1.376
c-Src mean of log2(enrichment) (c-Src kinase domain [1]; [12]): -1.078
c-Src enrich. R1 (c-Src kinase domain [1]; [13]): 0.5961
c-Src enrich. R3 (c-Src kinase domain [1]; [10]): 0.5045
c-Src enrich. R4 (c-Src kinase domain [1]; [14]): 0.4581
c-Src difference (mean log2 variant - mean log2 reference) (c-Src kinase domain [1]; [9]): 0.3253
c-Src hit? (c-Src kinase domain [1]; [11]): FALSE
difference (SHP2 C-SH2 domain; SHP2-C SH2, mean of log2(variant) minus mean of log2(reference)): -0.6126
mean of log2(variant) (SHP2 C-SH2 domain; SHP2-C SH2, mean of log2 enrichment of variant, R1-R3): -1.425
hit? (SHP2 C-SH2 domain; SHP2-C SH2, variant versus reference significant hit call): FALSE
Fyn mean of log2(enrichment) (Fyn kinase domain [4]; [12]): -1.18
Fyn enrich. R1 (Fyn kinase domain [4]; [13]): 0.3131
Fyn enrich. R3 (Fyn kinase domain [4]; [10]): 0.443
Fyn enrich. R4 (Fyn kinase domain [4]; [14]): 0.884
Fyn difference (mean log2 variant - mean log2 reference) (Fyn kinase domain [4]; [9]): 0.1477
Fyn hit? (Fyn kinase domain [4]; [11]): FALSE
AncSZ mean of log2(enrichment) (AncSZ kinase domain; mean of log2 of enrichment over R1-R5): -0.8229
AncSZ enrich. R1 (AncSZ kinase domain; [13]): 0.4421
AncSZ enrich. R3 (AncSZ kinase domain; [10]): 0.7733
AncSZ enrich. R4 (AncSZ kinase domain; [14]): 0.7058
AncSZ enrich. R5 (AncSZ kinase domain; pTyr-Var library, enrichment score, replicate 5): 0.7616
AncSZ difference (mean log2 variant - mean log2 reference) (AncSZ kinase domain; [9]): -0.03377
AncSZ hit? (AncSZ kinase domain; [11]): FALSE
Hck mean of log2(enrichment) (Hck kinase domain; mean of log2(variant) / mean of log2(reference), R1-R4): 0.5234
Hck enrich. R1 (Hck kinase domain; [13]): 0.3364
Hck enrich. R3 (Hck kinase domain; [10]): 0.4885
Hck enrich. R4 (Hck kinase domain; [14]): 0.9262
Hck difference (variant - reference) (Hck kinase domain; [9]): 0.1099
Hck hit? (Hck kinase domain; [11]): FALSE

phosphorylation of intact SHP2 by FGFR1 (FGFR1 kinase domain [5]): dramatically enhanced phosphorylation
phosphorylation of intact SHP2 by Fyn (Fyn kinase domain [6]): dramatically enhanced phosphorylation
B1: SHP2 D61N: human full-length SHP2 (residues 1–526; C459E, D61N) (protein, UniProt Q06124 2-593, looked up, variant C459E D61N)
Tyrosine-protein phosphatase …: TSRRWFHPNITGVEAENLLLTRGVDGSFLARPSKSNPGDFTLSVRRNGAVTHIKIQNTGNYYDLYGGEKFATLAELVQYYMEHHGQLKEKNGDVIELKYPLNCADPTSERWFHGHLSGKEAEKLLTEKGKHGSFLVRESQSHPGDFVLSVRTGDDKGESNDGKSKVTHVMIRCQELKYDVGGGERFDSLTDLVEHYKKNPMVETLGTVLQLKQPLNTTRINAAEIESRVRELSKLAETTDKVKQGFWEEFETLQQQECKLLYSRKEGQRQENKNKNRYKNILPFDHTRVVLHDGDPNEPVSDYINANIIMPEFETKCNNSKPKKSYIATQGCLQNTVNDFWRMVFQENSRVIVMTTKEVERGKSKCVKYWPDEYALKEYGVMRVRNVKESAAHDYTLRELKLSKVGQGNTERTVWQYHFRTWPDHGVPSDPGGVLDFLEEVHHKQESIMDAGPVVVHESAGIGRTGTFIVIDILIDIIREKGVDCDIDVPKTIQMVRSQRSGMVQTEAQYRFIYMAVQHYIETLQRRIEEEQKSKRKGHEYTNIKYSLADQTSGDQSPLPPCTPTPPCAEMREDSARVYENVGLMQQQKSFR
